Measured values: PubChem BioAssay (NCI)
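Values below derive from 48-hour exposures of cells grown in 96-well plates, with endpoints linearly interpolated between the two concentrations bracketing the appropriate inhibition level. At the TGI there is no net growth.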

Assays:
Experiment in all cases: growth of human tumour cells (NCI), 48 h
[1] = tested on: A549 NSCLC
[2] = tested on: U251 CNS
[3] = tested on: DU-145 prostate
[4] = tested on: SNB-19 CNS
[5] = tested on: T-47D breast
[6] = tested on: HCT-15 colon
[7] = tested on: HOP-62 NSCLC
[8] = tested on: CAKI-1 renal
[9] = tested on: CCRF-CEM leukemia
[10] = tested on: HCT-116 colon
[11] = tested on: HT29 colon
[12] = tested on: PC-3 prostate
[13] = tested on: ACHN renal
[14] = tested on: UO-31 renal
[15] = tested on: MDA-MB-231 breast
[16] = tested on: K-562 leukemia
[17] = tested on: NCI-H23 lung
[18] = tested on: A498 renal
[19] = tested on: RXF 393 renal
[20] = tested on: EKVX NSCLC
[21] = tested on: 786-0 renal
[22] = tested on: HCC-2998 colon
[23] = tested on: UACC-257 melanoma
[24] = tested on: SF-268 CNS
[25] = tested on: MOLT-4 leukemia
[26] = tested on: RPMI-8226 leukemia
[27] = tested on: SK-OV-3 ovarian
[28] = tested on: SN12C renal
[29] = tested on: SF-539 CNS
[30] = tested on: OVCAR-8 ovarian
[31] = tested on: NCI/ADR-RES ovarian
[32] = tested on: IGROV1 ovarian
[33] = tested on: OVCAR-4 ovarian
[34] = tested on: MDA-MB-435
[35] = tested on: SNB-75 CNS
[36] = tested on: SF-295 CNS
[37] = tested on: COLO 205 colon
[38] = tested on: BT-549 breast
[39] = tested on: MDA-N
[40] = tested on: OVCAR-3 ovarian
[41] = tested on: MALME-3M melanoma
[42] = tested on: SK-MEL-28 melanoma
[43] = tested on: M14 melanoma
[44] = tested on: NCI-H522 lung
[45] = tested on: NCI-H226 lung
[46] = tested on: HS 578T breast
[47] = tested on: HOP-92 NSCLC
[48] = tested on: SK-MEL-5 melanoma
[49] = tested on: MCF7 breast
[50] = tested on: SW-620 colon
[51] = tested on: LOX IMVI melanoma
[52] = tested on: NCI-H460 lung
[53] = tested on: SK-MEL-2 melanoma
[54] = tested on: UACC-62 melanoma
[55] = tested on: HL-60(TB) leukemia
[56] = tested on: TK-10 renal
[57] = tested on: OVCAR-5 ovarian
[58] = tested on: KM12 colon
[59] = tested on: SR leukemia

Measured: TGI

CC(C)(Br)C(Br)CCC1(C2CO2)CO1 (stereo not drawn)
> 5 µM: [1] | [2] | [3] | [4] | [5] | [6] | [7] | [8] | [9] | [10] | [11] | [12] | [13] | [14] | [15] | [16] | [17] | [18] | [19] | [20] | [21] | [22] | [23] | [24] | [25] | [26] | [27] | [28] | [29] | [30] | [31] | [32] | [33] | [34] | [35] | [36] | [37] | [38] | [39] | [40] | [41] | [42] | [43] | [44] | [45] | [46] | [47] | [48] | [49] | [50]

O=c1cc(N2CCOCC2)[nH]c(=O)n1-c1ccc(F)cc1
> 100 µM: [2] | [3] | [4] | [51] | [5] | [6] | [7] | [52] | [53] | [8] | [9] | [10] | [11] | [12] | [13] | [54] | [15] | [16] | [17] | [18] | [55] | [19] | [20] | [21] | [22] | [23] | [24] | [25] | [26] | [27] | [28] | [29] | [30] | [31] | [32] | [56] | [33] | [34] | [57] | [35] | [36] | [37] | [38] | [39] | [40] | [41] | [58] | [42] | [43] | [44] | [45] | [46] | [49] | [50]

OCC1OC(c2cccc3cc(O)c(O)cc23)CC1O (stereo not drawn)
> 100 µM: [1] | [2] | [3] | [4] | [51] | [5] | [6] | [7] | [52] | [53] | [10] | [11] | [12] | [13] | [54] | [14] | [15] | [16] | [18] | [55] | [20] | [21] | [22] | [23] | [24] | [25] | [26] | [27] | [28] | [29] | [30] | [31] | [32] | [56] | [33] | [34] | [57] | [35] | [36] | [38] | [39] | [40] | [58] | [42] | [43] | [44] | [45] | [46] | [47] | [49] | [50]

CCCCC1=NNC(=O)C1
> 100 µM: [1] | [2] | [5] | [6] | [7] | [52] | [53] | [8] | [9] | [10] | [11] | [12] | [13] | [54] | [14] | [15] | [17] | [18] | [55] | [19] | [20] | [21] | [22] | [23] | [25] | [26] | [27] | [28] | [29] | [30] | [31] | [32] | [59] | [33] | [34] | [57] | [35] | [36] | [37] | [38] | [39] | [40] | [41] | [58] | [42] | [43] | [44] | [45] | [46] | [47] | [48] | [49] | [50]
